In US12115178B2, “Acylated active agents and methods of their use for the treatment of autoimmune disorders” (Flagship Pioneering Innovations V, Inc., priority 2018, dated 2024):

assay: Assay 1. Stability in Simulated Gastric Fluid (SGF); assay type: in vitro ADME; conditions: SGF pH 1.6 with pepsin, 1 μM, 37° C.
Description: Assay 1. Stability of acylated active agents in Simulated Gastric Fluid (SGF). This assay was used to assess the stability of an acylated active agent in a stomach.
Medium was prepared by dissolving 2 g of sodium chloride in 0.6 L in ultrapure water (MilliQ®, Millipore Sigma, Darmstadt, Germany). The pH was adjusted to 1.6 with 1N hydrochloric acid, and the volume was then adjusted to 1 L with purified water.
60 mg FaSSIF powder (Biorelevant™, London, UK) were dissolved in 500 mL buffer (above). Pepsin was added (0.1 mg/mL) (Millipore Sigma, Darmstadt, Germany), and the solution was stirred. The resulting SGF media were used fresh for each experiment.
Test compounds were dissolved in DMSO stock to 1 mM. An aliquot of the DMSO stock solution was removed and diluted in the SGF Media in 15 mL falcon tubes to generate a total compound concentration of 1 μM. A 1 mL aliquot was immediately removed and diluted once with 1 volume of acetonitrile for T0 timepoint. The mixture was sealed and mixed at 37° C. in an incubator. Aliquots (1 mL) were removed at regular intervals and immediately quenched by the addition of 1 volume of acetonitrile. The resulting samples were analyzed by LC/MS to determine degradation rates in SGF.

| SMILES | Assay 1 (SGF) (% Remaining @ 1 hour) |
| --- | --- |
| CC(=O)Oc1cc(OC(C)=O)c2c(=O)c(OC(C)=O)c(-c3ccc(OC(C)=O)c(OC(C)=O)c3)oc2c1 [Compound 4, [2-acetoxy-4-(3,5,7-triacetoxy-4-oxo-chromen-2-yl)phenyl] acetate] | C (>75% of the tested compound remaining) |
| CC(=O)Oc1cc(OC(C)=O)c2c(=O)c(OC(C)=O)c(-c3cc(OC(C)=O)c(OC(C)=O)c(OC(C)=O)c3)oc2c1 [Compound 11, [3,5-diacetoxy-4-oxo-2-(3,4,5-triacetoxyphenyl)chromen-7-yl] acetate] | C (>75% of the tested compound remaining) |
| CCCC(=O)OC[C@H]1O[C@@H](Oc2ccccc2C(=O)O)[C@H](OC(=O)CCC)[C@@H](OC(=O)CCC)[C@@H]1OC(=O)CCC [Compound 28, 2-(((2S,3R,4S,5R,6R)-3,4,5-tris(butyryloxy)-6-((butyryloxy)methyl)tetrahydro-2H-pyran-2-yl)oxy)benzoic acid] | C (>75% of the tested compound remaining) |
| CCC(=O)O[C@@H]1[C@@H](OC(=O)CC)[C@@H](OC(=O)CCc2c[nH]c3ccccc23)OC[C@H]1OC(=O)CC [Compound 75, (2R,3R,4S,5R)-3,4,5-tris(propanoyloxy)oxan-2-yl 3-(1H-indol-3-yl)propanoate] | C (>75% of the tested compound remaining) |
| CCC(=O)OC[C@H]1O[C@@H](OC(=O)/C=C/c2c[nH]c3ccccc23)[C@H](OC(=O)CC)[C@@H](OC(=O)CC)[C@@H]1OC(=O)CC [Compound 95, (2S,3R,4S,5R,6R)-3,4,5-tris(propanoyloxy)-6-[(propanoyloxy)methyl]oxan-2-yl (2E)-3-(1H-indol-3-yl)prop-2-enoate] | B (25-75% of the tested compound remaining) |
| CCC(=O)O[C@H]1[C@H](OC(=O)CC)[C@H](OC(=O)/C=C/c2c[nH]c3ccccc23)O[C@@H](C)[C@H]1OC(=O)CC [Compound 116, (2S,3S,4R,5R,6S)-6-methyl-3,4,5-tris(propanoyloxy)oxan-2-yl (2E)-3-(1H-indol-3-yl)prop-2-enoate] | C (>75% of the tested compound remaining) |
| CCC(=O)O[C@@H]1OC[C@H](OC(=O)CC)[C@H](OC(=O)CC)[C@H]1OC(=O)CC [Compound 128, (2S,3R,4S,5S)-3,4,5-tris(propanoyloxy)oxan-2-yl propanoate] | C (>75% of the tested compound remaining) |
| CCC(=O)O[C@@H]1[C@@H](OC(=O)CC)[C@H](OC(=O)CCc2c[nH]c3ccccc23)OC[C@H]1OC(=O)CC [Compound 132, (2S,3R,4S,5R)-3,4,5-tris(propanoyloxy)oxan-2-yl 3-(1H-indol-3-yl)propanoate] | C (>75% of the tested compound remaining) |

assay: Assay 2. Stability in Simulated Intestinal Fluid (SIF); assay type: in vitro ADME; conditions: SIF pH 6.7 with pancreatin, 1 μM, 37° C.
Description: Assay 2. Stability of acylated active agents in Simulated Intestinal Fluid (SIF). This assay was used to assess the stability of an acylated active agent in a small intestine. Phosphate buffer was prepared by dissolving 0.42 g of sodium hydroxide pellets and 3.95 g of monobasic sodium phosphate monohydrate and 6.19 g of sodium chloride in ultrapure water (MilliQ®, Millipore Sigma, Darmstadt, Germany). The pH was adjusted to 6.7 using aq. HCl and aq. NaOH, as necessary, and the solution was diluted with ultrapure water to produce 1 L of the pH 6.7 buffer. 112 mg FaSSIF powder (Biorelevant™, London, UK) was dissolved in 50 mL of the pH 6.7 buffer. 2 to 3 mL of the resulting solution were then added to 500 mg pancreatin (Millipore Sigma, Darmstadt, Germany). The resulting mixture was agitated by finger tapping the vessel containing the mixture until milky suspension formed. At this time, the remainder of the 50 mL FaSSiF/pH 6.7 buffer solution was added. The resulting suspension was flipped upside down 10 times to produce SIF, which was used fresh. Test compounds were dissolved in DMSO stock to 1 mM. An aliquot of the DMSO stock solution was removed and diluted in the SIF media in 15 mL falcon tubes to produce a mixture with a tested compound concentration of 1 μM. A 1 mL aliquot was immediately removed and diluted once with 1 volume of acetonitrile for T0 timepoint. The mixture was sealed and agitated at 37° C. in an incubator. Aliquots (1 mL) were removed at regular intervals and immediately quenched by the addition of 1 volume of acetonitrile. The resulting samples were analyzed by LC/MS to determine degradation rates.

| SMILES | Assay 2 (SIF) (% @ Remaining 4 hours) |
| --- | --- |
| CC(=O)Oc1ccc(-c2oc3cc(OC(C)=O)cc(OC(C)=O)c3c(=O)c2OC(C)=O)cc1 [Compound 8, [4-(3,5,7-triacetoxy-4-oxo-chromen-2-yl)phenyl] acetate] | A (<25% of the tested compound remaining) |
| CCCC(=O)Oc1ccc(/N=N/c2ccc(OC(=O)CCC)c(C(=O)O)c2)cc1C(=O)O [Compound 17, 2-butanoyloxy-5-[(E)-(4-butanoyloxy-3-carboxy-phenyl)azo]benzoic acid] | A (<25% of the tested compound remaining) |
| CCCC(=O)O[C@H]1[C@@H](Oc2ccccc2C(=O)O)OC[C@@H](OC(=O)CCC)[C@H]1OC(=O)CCC [Compound 42, 2-(((3R,4R,5R)-3,4,5-tris(butyryloxy)tetrahydro-2H-pyran-2-yl)oxy)benzoic acid] | C (>75% of the tested compound remaining) |
| CCCC(=O)O[C@H]1O[C@@H](C)[C@H](OC(=O)CCC)[C@@H](OC(=O)CCC)[C@H]1OC(=O)CCC [Compound 119, (2R,3R,4R,5S,6S)-3,4,5-tris(butanoyloxy)-6-methyloxan-2-yl butanoate] | A (<25% of the tested compound remaining) |
| CCCC(=O)O[C@@H]1O[C@@H](C)[C@H](OC(=O)CCC)[C@@H](OC(=O)CCC)[C@H]1OC(=O)CCC [Compound 120, (2S,3R,4R,5S,6S)-3,4,5-tris(butanoyloxy)-6-methyloxan-2-yl butanoate] | A (<25% of the tested compound remaining) |
| C[C@@H]1O[C@H](OC(=O)Cc2c[nH]c3ccccc23)[C@H](OC(=O)Cc2c[nH]c3ccccc23)[C@H](OC(=O)Cc2c[nH]c3ccccc23)[C@H]1OC(=O)Cc1c[nH]c2ccccc12 [Compound 121, (2R,3R,4R,5S,6S)-3,4,5-tris({[2-(1H-indol-3-yl)acetyl]oxy})-6-methyloxan-2-yl 2-(1H-indol-3-yl)acetate] | A (<25% of the tested compound remaining) |
| C[C@@H]1O[C@@H](OC(=O)Cc2c[nH]c3ccccc23)[C@H](OC(=O)Cc2c[nH]c3ccccc23)[C@H](OC(=O)Cc2c[nH]c3ccccc23)[C@H]1OC(=O)Cc1c[nH]c2ccccc12 [Compound 122, (2S,3R,4R,5S,6S)-3,4,5-tris({[2-(1H-indol-3-yl)acetyl]oxy})-6-methyloxan-2-yl 2-(1H-indol-3-yl)acetate] | A (<25% of the tested compound remaining) |
| CCCC(=O)OCC1(OC(=O)CCC)OC[C@@H](OC(=O)CCC)[C@H](OC(=O)CCC)[C@@H]1OC(=O)CCC (stereo partly drawn) [Compound 131, [(3S,4S,5R)-2,3,4,5-tetrakis(butanoyloxy)oxan-2-yl]methyl butanoate] | A (<25% of the tested compound remaining) |
| CCCC(=O)O[C@@H]1[C@@H](OC(=O)CCC)[C@H](C)O[C@@H](O)[C@@H]1OC(=O)CCC [Compound 141, (2S,3S,4R,5R)-4,5-bis(butanoyloxy)-6-hydroxy-2-methyloxan-3-yl butanoate] | C (>75% of the tested compound remaining) |
| CCCC(=O)O[C@H]1OC[C@@H](OC(=O)CCC)[C@H](OC(=O)CCC)[C@H]1OC(=O)CCC [Compound 159, (2R,3R,4S,5R)-3,4,5-tris(butanoyloxy)oxan-2-yl butanoate] | C (>75% of the tested compound remaining) |
| CCCC(=O)Oc1ccc([C@@H]2CC(=O)c3c(OC(=O)CCC)cc(OC(=O)CCC)cc3O2)cc1 [Compound 175, (S)-2-(4-(butyryloxy)phenyl)-4-oxochromane-5,7-diyl dibutyrate] | A (<25% of the tested compound remaining) |
| CC(=O)Oc1ccc([C@@H]2CC(=O)c3c(OC(C)=O)cc(OC(C)=O)cc3O2)cc1 [Compound 176, (S)-2-(4-acetoxyphenyl)-4-oxochromane-5,7-diyl diacetate] | A (<25% of the tested compound remaining) |
| CC(=O)Oc1cc(OC(C)=O)c2c(=O)c(OC(C)=O)c(-c3ccc(OC(C)=O)c(OC(C)=O)c3)oc2c1 [Compound 182, [2-acetoxy-4-(3,5,7-triacetoxy-4-oxo-chromen-2-yl)phenyl] acetate] | A (<25% of the tested compound remaining) |
| CCCC(=O)O[C@@H]1[C@@H](OC(=O)CCC)[C@@H](Oc2ccc(N)cc2C(=O)O)OC[C@H]1OC(=O)CCC [Compound 184, 5-amino-2-[(2R,3R,4S,5R)-3,4,5-tri(butanoyloxy)tetrahydropyran-2-yl]oxy-benzoic acid] | B (25-75% of the tested compound remaining) |
| CCCC(=O)Nc1ccc(O[C@@H]2OC[C@@H](OC(=O)CCC)[C@H](OC(=O)CCC)[C@H]2OC(=O)CCC)c(C(=O)O)c1 [Compound 188, 5-butanamido-2-{[(2S,3R,4S,5R)-3,4,5-tris(butanoyloxy)oxan-2-yl]oxy}benzoic acid] | A (<25% of the tested compound remaining) |
| CC(=O)Oc1ccc2c(c1)oc(=O)c1cc(OC(C)=O)c(OC(C)=O)cc12 [Compound 203, 6-oxo-6H-benzo[c]chromene-3,8,9-triyl triacetate] | B (25-75% of the tested compound remaining) |
